These are literature values, as cited in patent US4761398A, “Method of inducing birds to molt” (Embrex, Inc., priority 1986, dated 1988).

The target of data set [1] is T1, LHRH receptor (Homo sapiens, UniProt P30968).
T1 sequence (P30968 1-328): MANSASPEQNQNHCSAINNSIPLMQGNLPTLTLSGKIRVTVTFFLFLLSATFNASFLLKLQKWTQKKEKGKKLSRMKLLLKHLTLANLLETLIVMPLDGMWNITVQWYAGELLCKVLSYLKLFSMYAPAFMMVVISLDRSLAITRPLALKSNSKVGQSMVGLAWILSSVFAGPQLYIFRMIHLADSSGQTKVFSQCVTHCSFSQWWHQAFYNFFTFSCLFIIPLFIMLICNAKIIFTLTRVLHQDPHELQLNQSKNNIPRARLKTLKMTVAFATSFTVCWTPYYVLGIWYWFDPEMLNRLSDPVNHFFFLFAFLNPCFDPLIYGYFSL
The settings on record: Nestor et al., cited from earlier work; for potency relative to LHRH: 6-substituted analogs.

The target of data set [2] is T1, LHRH receptor. The settings on record: literature review; cited from earlier work.

Where no end group is shown, it is not given here.

[D-Dca^6 ]LHRH: in data set [1], the “potency relative to LHRH” value is recorded as “more potent than LHRH” and the “agonistic activity in words” value is reported as “activity dropped off”.
As to [D-Nal(1)^6 ]LHRH, the “potency relative to LHRH” value in data set [1] is “more potent than LHRH”.
As to [D-Pfp^6 ]LHRH, the “potency relative to LHRH” value in data set [1] is recorded as “more potent than LHRH”.
Turning to [D-ptf^6 ]LHRH, in data set [1], the “potency relative to LHRH” value is “more potent than LHRH”.
With [desHis^2, desGly^10 ] LHRHEA, the antagonistic activity entry in data set [2] is on record as “significant antagonistic activity”.
On to [desHis^2, D-Ala^6 ] LHRH, for which the antagonistic activity entry in data set [2] is “found to have antagonistic activity”.
[D-Tmo^6 ]LHRH: in data set [1], the “potency relative to LHRH” value is on record as “more potent than LHRH”.
Turning to [D-Trp^6, Pro^9 -NHEt]LHRH, in data set [1], the “potency relative to LHRH” value was “more potent than LHRH”.
Consider [D-Nal(2)^6 ]LHRH, for which the “potency relative to LHRH” value in data set [1] is “more potent than LHRH”.
For the substance [desHis^2, D-Ala^6, desGly^10 ] LHRHEA, in data set [2], the “agonistic activity of antagonist analogs” value is given as “showed some agonistic activity” and the antagonistic activity result is reported as “found to have antagonistic activity”.
Regarding [D-Tmp^6 ]LHRH, the “potency relative to LHRH” value in data set [1] is “more potent than LHRH”.
For [desHis^2, Leu^3, desGly^10 ] LHRHEA, the antagonistic activity entry in data set [2] is “found to have antagonistic activity”.
Consider [desHis^2, D-Phe^6 ]LHRH, for which the antagonistic activity result in data set [2] was “increased antagonistic activity”.
On to “[desHis^2, Leu^3, D-Ala^6, desGly^10 ] LHRHEA”, for which, in data set [2], the “agonistic activity of antagonist analogs” value is listed as “showed some agonistic activity” and the antagonistic activity entry is “found to have antagonistic activity”.
As for [D-Mtf^6 ]LHRH, in data set [1], the “potency relative to LHRH” value is “more potent than LHRH”.
For [D-Cha^6 ]LHRH, the “potency relative to LHRH” value in data set [1] was “more potent than LHRH”.
Regarding “Leu^3 -LHRH (QHLSYGLRPG; ends and bridges not checked; UniProt P01148 24-33, looked up, variant W3L)”, the antagonistic activity entry in data set [2] is recorded as “some antagonistic activity”.
Turning to [D-Nal(2)^6 ], aza-Gly^10 ]LHRH, in data set [1], the “agonistic activity in words” value is “one of the most potent LHRH agonists known”.
